# US7541020B2, “Aminoalkyl glucosaminide phosphate compounds and their use as adjuvants and immunoeffectors” (priority 1997, dated 2009)
# Values joined by “and” are separate entries in the source; they are usually repeats but may differ in a detail not shown here. Identical values can stand only once. Like-named read-outs stand apart in the source and are kept apart here.
# Tests used:
# TNF-α = test: Cytokine induction in human whole blood ex vivo culture: TNF-α (ELISA); assay type: cell-based; settings: 4 hr, Table 17
# Method in brief: (§1)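 Compounds in 10% EtOH-water added at 1:10 to human whole blood, 4 hr at 37° C with rotation; RPMI-treated controls. After PBS dilution and centrifugation, supernatant TNF-α and IL-1β measured by ELISA.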
# ovalbumin = test: Stimulation of antiovalbumin antibody production; assay type: in vivo, BDF1 female mice; settings: 50 μg AGP + 50 μg ovalbumin; second immunization day 21; bled 14 days after second injection
# Method: BDF1 female mice (8 per group) were immunized with 0.2 ml of emulsions containing 50 μg of the AGPs +50 μg of ovalbumin. A second immunization was administered 21 days post primary. Each mouse was bled 14 days after the second injection.
# [1] = Fever response in rabbits (pyrogenicity); assay type: in vivo; settings: for PYROGENICITY Total Rise ° C., 3 rabbits: 10 ug/kg, cumulative rise ≥1.5 degree in three rabbits is considered pyrogenic
# Method: The AGP compounds were also evaluated for their tendency to induce a fever response in rabbits. Each compound was formulated in 10% (v/v) ethanol/water solution at 100 mg/ml, then diluted with D5W to the desired concentration. The material was injected at 3 ml/kg body weight into 3 rabbits. The rise in core temperature of the rabbits was recorded.
# influenza A/HK/68 [2] = test system: influenza A/HK/68; design: species or system ICR mice; settings: mouse, in vivo
# tetanus toxoid [3] = settings: mouse, in vivo, sc
# IL-1β = test: Cytokine induction in human whole blood ex vivo culture: IL-1β (ELISA); assay type: cell-based; settings: 4 hr, Table 17
# Method in brief: as §1
# influenza A/HK/68 [4] = test: Second intranasal influenza vaccine experiment with aqueous AGP and MPL formulations: vaginal, tracheal wash and serum titers, protection; assay type: in vivo, BABL/c mice; settings: mouse, in vivo
# [5] = test system: hepatitis B surface antigen (HBsAg); settings: for % Cytotoxicity (d16, post 2°): HBsAg + 10 μg AGP-AF intranasally; for % Cytotoxicity (d8, post 3°): intranasal HBsAg + 10 μg AGP-AF
# tetanus toxoid [6] = settings: mouse, in vivo
# tetanus toxoid [7] = test system: tetanus toxoid; design: species or system BFD1 (C57B1/6X DBA/2) female mice; settings: mouse, in vivo
# influenza A/HK/68 [8] = assay type: in vivo, ICR mice; settings: mouse, in vivo
# [9] = test system: hepatitis B surface antigen (HBsAg); test: Serum anti-HBsAg antibody titers after intranasal HBsAg + AGP-AF (ELISA); assay type: in vivo, BALB/c mice; settings: for Anti HBsAg Titer^−1 IgG1 / Anti HBsAg Titer^−1 IgG2a: K = 10^3
# E.G7 (OVA) cells = settings: s.c. 25 μg OVA in AGP preparation, spleen cells 21 days later
# [10] = test system: hepatitis B surface antigen (HBsAg); test: Vaginal wash anti-HBsAg antibody after intranasal HBsAg + AGP-AF; assay type: in vivo, BALB/c mice; settings: 10 days after the booster immunization; intranasal HBsAg + 10 μg AGP-AF
# Description: Vaginal samples were collected 10 days after the booster immunization and assayed for anti-HBsAg antibody.
# influenza A/HK/68 [11] = assay type: in vivo, BALB/c mice; settings: mouse, in vivo
# [12] = test system: hepatitis B surface antigen (HBsAg); test: Cytotoxic T-lymphocyte response to HBsAg with AGP in stable emulsion (AGP-SE); settings: s.c. 2.0 μg HBsAg + 25 μg AGP/SE
# influenza A/HK/68 [13] = test system: influenza A/HK/68; design: species or system ICR mice; settings: mouse, in vivo; remark: listed apart in the source
# [14] = test system: hepatitis B surface antigen (HBsAg); test: Anti-HBsAg antibody titer with AGP-SE (ELISA plates coated with HBsAg or p72 peptide); settings: sera day 28 post 2°, 25 μg AGP-SE
# [15] = day 22 post 2°, HBsAg + 10 μg AGP-AF intranasally
# [16] = serum, day 21 post 3°, intranasal HBsAg + 10 μg AGP-AF
# [17] = ELISA plates coated with p72 peptide
substance,measurement,setting,value
N-[(R)-3-Decanoyloxytetradecanoyl]-O-[2-deoxy-4-O-phosphono-2-[(R)-3-decanoyloxytetradecanoylamino]-3-O-[(R)-3-decanoyloxytetradecanoyl]-β-D-glucopyranosyl]-L-serine Triethylammonium Salt [B15],TNF-α,TNF-α; Dosage 100 ng/ml,133 pg/mL
same,TNF-α,TNF-α; Dosage 500 ng/ml,183 pg/mL
same,TNF-α,TNF-α; Dosage 1000 ng/ml,209 pg/mL
same,TNF-α,TNF-α; Dosage 5000 ng/ml,280 pg/mL
same,TNF-α,"TNF-α; Dosage 10,000 ng/ml",320 pg/mL
same,Anti-ovalbumin IgG1 T/C,ovalbumin,0.6
same,Anti-ovalbumin IgG1 Titer,ovalbumin,950
same,Anti-ovalbumin IgG2a T/C,ovalbumin,0.3
same,Anti-ovalbumin IgG2a Titer,ovalbumin,113
same,Anti-ovalbumin IgG2b T/C,ovalbumin,16.7
same,Anti-ovalbumin IgG2b Titer,ovalbumin,3963
same,Anti-ovalbumin IgM T/C,ovalbumin,2.3
same,Anti-ovalbumin IgM Titer,ovalbumin,438
same,Anti-ovalbumin Total Ig T/C,ovalbumin,4.1
same,Anti-ovalbumin Total Ig Titer,ovalbumin,925
same,"PYROGENICITY Total Rise ° C., 3 rabbits",[1],3.1 °C
same,PY[…],[1]; rabbits,<0.06 µg/kg
same,Anti-influenza Titer^−1 Total IgG,influenza A/HK/68 [2],6400
same,Percent Survival,influenza A/HK/68 [2],50%
same,Anti-tetanus toxoid IgM T/C,tetanus toxoid [3],4.0 and 2.7
same,Anti-tetanus toxoid Total Ig T/C,tetanus toxoid [3],144.5
same,Anti-tetanus toxoid Total Ig Titer,tetanus toxoid [3],"34,400"
same,Anti-tetanus toxoid Total IgG T/C,tetanus toxoid [3],18.85
same,Anti-tetanus toxoid Total IgG Titer,tetanus toxoid [3],"121,600"
same,IL-1β,IL-1β; Dosage 100 ng/ml,51.6 pg/mL
same,IL-1β,IL-1β; Dosage 500 ng/ml,104 pg/mL
same,IL-1β,IL-1β; Dosage 1000 ng/ml,94.4 pg/mL
same,IL-1β,IL-1β; Dosage 5000 ng/ml,126 pg/mL
same,IL-1β,"IL-1β; Dosage 10,000 ng/ml",153 pg/mL
same,Mucosal IgA Response TW,influenza A/HK/68 [4],11.1
same,Mucosal IgA Response VW,influenza A/HK/68 [4],10.9
same,Percent Protection,influenza A/HK/68 [4],100%
same,Serum IgG Titers,influenza A/HK/68 [4],19.1
same,mucosal adjuvant activity (in words),influenza A/HK/68 [4],act as mucosal adjuvants causing the production of IgA at two mucosal sites
same,"% Cytotoxicity (d16, post 2°)",[5]; E/T 6.25:1,4%
same,"% Cytotoxicity (d8, post 3°)",[5]; E/T 6.25:1,16%
same,"% Cytotoxicity (d16, post 2°)",[5]; E/T 12.5:1,4%
same,"% Cytotoxicity (d8, post 3°)",[5]; E/T 12.5:1,25%
same,"% Cytotoxicity (d16, post 2°)",[5]; E/T 25:1,5%
same,"% Cytotoxicity (d8, post 3°)",[5]; E/T 25:1,42%
same,"% Cytotoxicity (d16, post 2°)",[5]; E/T 50:1,13%
same,"% Cytotoxicity (d8, post 3°)",[5]; E/T 50:1,56%
same,Anti-Tetanus Toxoid Titer^−1 Fecal Extract IgG,tetanus toxoid [6],50 and 100
same,Anti-Tetanus Toxoid Titer^−1 Vaginal Wash IgA,tetanus toxoid [6],6400
same,Anti-Tetanus Toxoid Titer^−1 Vaginal Wash IgG,tetanus toxoid [6],400 and 800
same,IgG1 T/C Ratio,tetanus toxoid [7],4.1 and 4.5 and 5.5
same,IgM T/C,tetanus toxoid [7],3.14 and 2.29 and 2.86 and 1.71 and 1.57
same,Total Ig T/C,tetanus toxoid [7],233.88 and 181.91 and 170.10 and 248.06 and 166.56
same,Total Ig T/C Ratio,tetanus toxoid [7],3.3 and 5.8 and 5.3
same,Percent Survival,influenza A/HK/68 [8],70%
same,Titer^−1 IgG1,influenza A/HK/68 [8],200
same,Titer^−1 IgG2a,influenza A/HK/68 [8],3200
same,Titer^−1 IgG2b,influenza A/HK/68 [8],6400
same,Titer^−1 Total IgG,influenza A/HK/68 [8],3200
same,Anti HBsAg Titer^−1 IgA,[9]; [15],"6,400"
same,Anti HBsAg Titer^−1 IgG1,[9]; [15],256K
same,Anti HBsAg Titer^−1 IgG2a,[9]; [15],500K
same,Anti HBsAg Titer^−1 IgG1,[9]; [16],2000K
same,Anti HBsAg Titer^−1 IgG2a,[9]; [16],2000K
same,Anti HBsAg Titer^−1 IgA,[9]; [16],"25,600"
same,% Cytotoxicity,E.G7 (OVA) cells; E:T 12.5:1,30%
same,% Cytotoxicity,E.G7 (OVA) cells; E:T 25:1,49%
same,% Cytotoxicity,E.G7 (OVA) cells; E:T 50:1,58%
same,Vaginal Wash Anti-HBsAg Titer^−1 IgA,[10],3200
same,Vaginal Wash Anti-HBsAg Titer^−1 IgG,[10],50
same,Anti-influenza Titer^−1 IgG1,influenza A/HK/68 [11],3200
same,Anti-influenza Titer^−1 IgG2a,influenza A/HK/68 [11],3200
same,Anti-influenza Titer^−1 IgG2b,influenza A/HK/68 [11],400
same,Anti-influenza Titer^−1 Total IgG,influenza A/HK/68 [11],1600
same,Percent Survival,influenza A/HK/68 [11],100%
3-Hydroxy-(S)-2-[(R)-3-dodecanoyloxytetradecanoylamino]propyl 2-Deoxy-4-O-phosphono-2-[(R)-3-dodecanoyloxytetradecanoylamino]-3-O-[(R)-3-dodecanoyloxytetradecanoyl]-β-D-glucopyranoside Triethylammonium Salt [B3],% Cytotoxicity,"[12]; d16, post 2°, E:T 6.25:1",22%
same,% Cytotoxicity,"[12]; d16, post 2°, E:T 12.5:1",32%
same,% Cytotoxicity,"[12]; d16, post 2°, E:T 25:1",47%
same,% Cytotoxicity,"[12]; d16, post 2°, E:T 50:1",81%
same,% Cytotoxicity,"[12]; d17, post 1°, E:T 6.25:1",5%
same,% Cytotoxicity,"[12]; d17, post 1°, E:T 12.5:1",9%
same,% Cytotoxicity,"[12]; d17, post 1°, E:T 25:1",15%
same,% Cytotoxicity,"[12]; d17, post 1°, E:T 50:1",28%
same,"PYROGENICITY Total Rise ° C., 3 rabbits",[1],4.2 °C
same,Percent Survival,influenza A/HK/68 [2],33%
same,IgG Titer-1 post 1°,influenza A/HK/68 [13],3200
same,IgG Titer-1 post 2°,influenza A/HK/68 [13],"102,400"
same,Percent Survival post 1°,influenza A/HK/68 [13],70%
same,Percent Survival post 2°,influenza A/HK/68 [13],60%
same,"% Cytotoxicity (d16, post 2°)",[5]; E/T 6.25:1,11%
same,"% Cytotoxicity (d8, post 3°)",[5]; E/T 6.25:1,20%
same,"% Cytotoxicity (d16, post 2°)",[5]; E/T 12.5:1,17%
same,"% Cytotoxicity (d8, post 3°)",[5]; E/T 12.5:1,32%
same,"% Cytotoxicity (d16, post 2°)",[5]; E/T 25:1,26%
same,"% Cytotoxicity (d8, post 3°)",[5]; E/T 25:1,45%
same,"% Cytotoxicity (d16, post 2°)",[5]; E/T 50:1,43%
same,"% Cytotoxicity (d8, post 3°)",[5]; E/T 50:1,54%
same,Anti-HBsAg Titer^−1 HBsAg IgG1,[14]; ELISA plates coated with HBsAg,512K
same,Anti-HBsAg Titer^−1 HBsAg IgG2a,[14]; ELISA plates coated with HBsAg,1024K
same,Anti-HBsAg Titer^−1 p72-Peptide IgG1,[14]; [17],16K
same,Anti-HBsAg Titer^−1 p72-Peptide IgG2a,[14]; [17],128K
same,Percent Survival,influenza A/HK/68 [8],0%
same,Titer−1 IgG2a,influenza A/HK/68 [8],50
same,Titer−1 IgG2b,influenza A/HK/68 [8],800
same,Anti HBsAg Titer^−1 IgA,[9]; [15],"6,400"
same,Anti HBsAg Titer^−1 IgG1,[9]; [15],1000K
same,Anti HBsAg Titer^−1 IgG2a,[9]; [15],500K
same,Anti HBsAg Titer^−1 IgG1,[9]; [16],1000K
same,Anti HBsAg Titer^−1 IgG2a,[9]; [16],1000K
same,Anti HBsAg Titer^−1 IgA,[9]; [16],"25,600"
same,% Cytotoxicity,E.G7 (OVA) cells; E:T 12.5:1,42%
same,% Cytotoxicity,E.G7 (OVA) cells; E:T 25:1,54%
same,% Cytotoxicity,E.G7 (OVA) cells; E:T 50:1,65%
same,Vaginal Wash Anti-HBsAg Titer^−1 IgA,[10],1600
same,Vaginal Wash Anti-HBsAg Titer^−1 IgG,[10],800
same,Anti-influenza Titer^−1 IgG1,influenza A/HK/68 [11],3200
same,Anti-influenza Titer^−1 IgG2b,influenza A/HK/68 [11],800
same,Anti-influenza Titer^−1 Total IgG,influenza A/HK/68 [11],3200
same,Percent Survival,influenza A/HK/68 [11],87.5%
